Where two headings read alike, the source gives them in different places. Marks after values point to notes of the source that are not given here.
Key:
[1] = test system: O=C(Cc1cccs1)N[C@@H]1C(=O)N2C(C(=O)O)=C(C=Cc3ccc([N+](=O)[O-])cc3[N+](=O)[O-])CS[C@H]12; test: purified protein, by the assay type; settings: pH 7.0; 37.0 °C
[2] = test system: O=C(Cc1cccs1)N[C@@H]1C(=O)N2C(C(=O)O)=C(C=Cc3ccc([N+](=O)[O-])cc3[N+](=O)[O-])CS[C@H]12; test: purified protein, by the assay type; settings: pH 7.0; 37.0 °C; remark: listed apart in the source
K17 = test: Competitive assay with nitrocefin (RSAI); assay type: biochemical, Klebsiella 17
TEM-2 = TEM-2 (Escherichia coli, UniProt P62593, Q37K); test: Competitive assay with nitrocefin (RSAI); assay type: biochemical, E. coli 1725E
PSE-4 = PSE-4 (Pseudomonas aeruginosa, UniProt P16897); test: Competitive assay with nitrocefin (RSAI); assay type: biochemical, Ps.aerug. 1559E; set-up: Normally, therefore, the beta-lactamase has to be extracted from the cells for the purpose of the present invention; endogenous in cells
TEM-1 = TEM-1 (Escherichia coli, UniProt P62593); test: Competitive assay with nitrocefin (RSAI); assay type: biochemical, E. coli 2136E; set-up: the beta-lactamase has to be extracted from the cells for the purpose of the present invention; made in house; host or cells: E. coli 2136E (plasmid-bearing strain; crude cell extract)
K10317 = test: Competitive assay with nitrocefin (RSAI); assay type: biochemical, K.aerog. 10317
PSE-1 = PSE-1 (Pseudomonas aeruginosa, UniProt Q03170); test: Competitive assay with nitrocefin (RSAI); assay type: biochemical, Ps.aerug. 1937E; set-up: Normally, therefore, the beta-lactamase has to be extracted from the cells for the purpose of the present invention; endogenous in cells
[3] = molecular target: T1, Chromosomal, constitutive beta-lactamase enzyme (Enterobacter cloacae, UniProt P05364); test: Competitive assay with nitrocefin (RSAI); assay type: biochemical, E. cloacae
T1 construct: Normally, therefore, the beta-lactamase has to be extracted from the cells for the purpose of the present invention; endogenous in cells

PSE-3 = test: Competitive assay with nitrocefin (RSAI); assay type: biochemical, Ps.aerug. 1920E
OXA-3 = OXA-3 (Pseudomonas aeruginosa, UniProt Q51429); test: Competitive assay with nitrocefin (RSAI); assay type: biochemical, E. coli R57B; set-up: Normally, therefore, the beta-lactamase has to be extracted from the cells for the purpose of the present invention; endogenous in cells
SHV-1 = SHV-1 (Escherichia coli, UniProt P0AD63); test: Competitive assay with nitrocefin (RSAI); assay type: biochemical, E. coli 2008E; set-up: the beta-lactamase has to be extracted from the cells for the purpose of the present invention; made in house; host or cells: E. coli 2008E (crude cell extract)
[4] = test system: "unknown" (unidentified) beta-lactamase; test: Competitive assay with nitrocefin (RSAI) on an unidentified beta-lactamase; settings: extract by the method of Example 6, assay as in Example 1; * = showed irreversible inhibition
OXA-1 [5] = molecular target: T2, OXA-1 (Escherichia coli, UniProt P13661); test: Competitive assay with nitrocefin (RSAI); assay type: biochemical, E. coli 1527E; set-up: the beta-lactamase has to be extracted from the cells for the purpose of the present invention; made in house; host or cells: E. coli 1527E according to the earlier reading (crude cell extract)
PSE-2 = PSE-2 (Pseudomonas aeruginosa, UniProt P14489); test: Competitive assay with nitrocefin (RSAI); assay type: biochemical, Ps.aerug. 1973E; set-up: Normally, therefore, the beta-lactamase has to be extracted from the cells for the purpose of the present invention; endogenous in cells
OXA-2 [6] = molecular target: T3, OXA-2 (Escherichia coli, UniProt P0A1V9); test: Competitive assay with nitrocefin (RSAI); assay type: biochemical, E. coli R46; set-up: the beta-lactamase has to be extracted from the cells for the purpose of the present invention; made in house; host or cells: E. coli carrying R46 according to the earlier reading (crude cell extract)
HMS-1 = test: Competitive assay with nitrocefin (RSAI); assay type: biochemical, E. coli 1946
[7] = molecular target: T4, Chromosomal, hyper-induced beta-lactamase enzyme (Escherichia coli, UniProt P00811); test: Competitive assay with nitrocefin (RSAI); assay type: biochemical, E. coli SNU35; set-up: Normally, therefore, the beta-lactamase has to be extracted from the cells for the purpose of the present invention; endogenous in cells; host or cells: E. coli SNU 35 (artificially produced strain)
[8] = molecular target: T5, Chromosomal, induced beta-lactamase enzyme (Pseudomonas aeruginosa, UniProt P24735); test: Competitive assay with nitrocefin (RSAI); assay type: biochemical, Ps.aerug. 1937E + ampicillin
T5 construct: Normally, therefore, the beta-lactamase has to be extracted from the cells for the purpose of the present invention; endogenous in cells; host or cells: Pseudomonas aeruginosa 1937E grown with ampicillin

K1073 = test: Competitive assay with nitrocefin (RSAI); assay type: biochemical, Klebsiella 1073
OXA-1 [9] = molecular target: T2, OXA-1; test: Cleavage of chromogenic substrate by enzyme (PADAC example); settings: PADAC monitored at 570 nm; same enzyme preparation for nitrocefin
OXA-2 [10] = molecular target: T3, OXA-2; test: Hydrolysis of nitrocefin by enzyme (Michaelis constant); settings: read-out: Km (Nitrocefin); enzyme No. 6
[11] = molecular target: T4, Chromosomal, hyper-induced beta-lactamase enzyme; test: as above; settings: read-out: Km (Nitrocefin); enzyme No. 9

Compound: (Escherichia coli)
- Km [1]: 9 µg/mL
- Km [2]: 16 µg/mL

Compound: CO[C@@]1(NC(=O)C(C(=O)O)c2ccc(O)cc2)C(=O)N2C(C(=O)O)=C(CSc3nnnn3C)CO[C@@H]21 (some centres unmarked) [Moxalactam]
- RSAI (K17): 3.5
- RSAI (TEM-2): 60*
- RSAI (PSE-4): 4.3
- RSAI (TEM-1): 40*
- RSAI (K10317): 60*
- RSAI (PSE-1): 3.5
- RSAI [3]: 0.0001*
- RSAI ([3]; listed as moxalactam): 0.0001
- RSAI (PSE-3): 7
- RSAI (OXA-3): 1*
- RSAI (SHV-1): 280
- RSAI [4]: 0.0001
- RSAI (OXA-1 [5]): 4*
- RSAI (PSE-2): 8.2
- RSAI (OXA-2 [6]): 3*
- RSAI (HMS-1): 0.3*
- RSAI [7]: 0.002*
- RSAI ([7]; listed as moxalactam): 0.002
- RSAI [8]: 0.006*
- RSAI ([8]; listed as moxalactam): 0.006
- RSAI (K1073): >80

Compound: O=C(Cc1cccs1)N[C@@H]1C(=O)N2C(C(=O)O)=C(C=Cc3ccc([N+](=O)[O-])cc3[N+](=O)[O-])CS[C@H]12 [Nitrocefin, 3-(2,4-dinitrostyryl)-(6R,7R)-7-(2-thienylacetamido)ceph-3-em-4-carboxylic acid]
- cleavage of chromogenic substrate by the enzyme (OXA-1 [9]): cleaved
- Km (OXA-2 [10]): < 9.68 µM
- Km [11]: 34.8 µM
